Assay results taken from patent US12076421B2, “Assessment of coronary heart disease with carbon dioxide” (priority 2011, dated 2024).

What was measured:
[1] = tested on: myocardial blood flow (MBF); assay: 13N-ammonia PET myocardial blood flow following pre-administration of caffeine; format: in vivo, canines; conditions: for MBF response relative to rest: following caffeine administration
Procedure: These studies were conducted by prospectively and independently controlling PaCO2 and combining it with ^13N-ammonia Positron Emission Tomography (PET) measurements, and the extent of effect on MBF due to hypercapnia was compared to adenosine.
The objectives of these studies were twofold: to investigate the effects of PaCO2 on MBF while minimizing contributions from factors that can unintentionally reduce or inaccurately report on sensitivity of PaCO2 on MBF; and to assess whether an independent, precise and rapid establishment of physiologically tolerable level of hypercapnia provides equivalent hyperemia as adenosine, a commonly used pharmacological stimulus for cardiac stress testing with and without pre-administration of caffeine. To address these aims, a clinically relevant animal model was used along with validated strategies for (i) precisely and rapidly establishing desired levels of PaCO2, while holding PaO2 constant; (ii) quantifying MBF in vivo; and (iii) image analysis to derive MBF values across the different coronary supply territories. […] To determine whether MBF response to PaCO2 overlaps the same mechanistic path as adenosine, we quantified MBF under hypercapnia and adenosine following caffeine administration. Studies were conducted as described in Yang, H-J et al., J. Nucl. Med. 58: 953-960 (2017), which is hereby incorporated by reference in its entirety.

[2] = tested on: left anterior descending (LAD) artery; assay: Doppler flow in the left anterior descending artery in response to PaCO2 modulation; format: in vivo, canines; conditions: increasing amount of administered CO2, PaO2 held constant
Procedure: (§1) In Examples 1-6, all imaging studies were performed in instrumented animals with a Doppler flow probe attached to the LAD coronary arteries for measurement of flow changes in response to CO2 and clinical dose of adenosine. In these studies, CO2 and O2 delivery were tightly controlled using Respiract. CO2 values were incremented in steps of 10 mmHg starting from 30 mmHg to 60 mmHg and were ramped down in decrements of 10 mmHg. At each CO2 level, free-breathing and cardiac gated blood-oxygen-level-dependent (BOLD) acquisitions were prescribed at mid diastole and Doppler flow velocities were measured. Similar acquisitions were also performed with block sequences of CO2 levels; that is, CO2 levels were alternated between 40 and 50 mmHg and BOLD images (and corresponding Doppler flow velocities) were acquired at each CO2 level to assess the reproducibility of the signal changes associated with different CO2 levels. Each delivery of CO2 using Respiract was made in conjunction with arterial blood draw to determine the arterial blood CO2 levels.
The Doppler flow was measured in the left anterior descending (LAD) artery. […] The relative change in coronary flow velocity was directly proportional to the amount of CO2 administered.

[3] = tested on: myocardial blood flow (MBF); assay: 13N-ammonia PET myocardial blood flow and perfusion defect, canines with LAD coronary stenosis; format: in vivo; conditions: for regional MBF versus rest: all territories (LAD, LCx, RCA); for regional MBF versus rest / MBF increase in the LAD territory: p<0.05; for MBF increase in the LAD territory: compared with LCx and RCA territories
Procedure: We investigated whether a physiologically tolerable hypercapnia stimulus ( 25-mmHg increase in PaCO2) can increase myocardial blood flow (MBF) to that observed with adenosine in three groups of canines: (i) without coronary stenosis; (ii) subjected to non-flow limiting coronary stenosis; and (iii) following pre-administration of caffeine. These studies were conducted by prospectively and independently controlling PaCO2 and combining it with ^[…]-ammonia Positron Emission Tomography (PET) measurements, and the extent of effect on MBF due to hypercapnia was compared to adenosine. The objectives of these studies were twofold: to investigate the effects of PaCO2 on MBF while minimizing contributions from factors that can unintentionally reduce or inaccurately report on sensitivity of PaCO2 on MBF; and to assess whether an independent, precise and rapid establishment of physiologically tolerable level of hypercapnia provides equivalent hyperemia as adenosine, a commonly used pharmacological stimulus for cardiac stress testing with and without pre-administration of caffeine. To address these aims, a clinically relevant animal model was used along with validated strategies for (i) precisely and rapidly establishing desired levels of PaCO2, while holding PaO2 constant; (ii) quantifying MBF in vivo; and (iii) image analysis to derive MBF values across the different coronary supply territories. We compared our findings to the effects of standard dose of adenosine in the same animal models with and without coronary stenosis to quantify MBF and flow deficit regions under peak tolerable PaCO2. To determine whether MBF response to PaCO2 overlaps the same mechanistic path as adenosine, we quantified MBF under hypercapnia and adenosine following caffeine administration. Studies were conducted as described in Yang, H-J et al., J. Nucl. Med. 58: 953-960 (2017), which is hereby incorporated by reference in its entirety. […] FIGS. 16A, 16B, 16E show the mean regional MBF in LAD, left circumflex artery (LCx) and right coronary artery (RCA) supply territories at rest, hypercapnia and adenosine. MBF values were not different at rest among the different supply territories (p>0.4, for all). […] MBF under hypercapnia was not different between the LCx and RCA territories (hypercapnia: p=0.21); the same was true under adenosine (p=0.50). For each myocardial supply territory, MBF under hypercapnia and adenosine were not different (p=1.00, for all). […] MPR under hypercapnia was not different between the LCx and RCA territories (hypercapnia: p=0.59); the same was true under adenosine (p=0.34). For each myocardial supply territory, MPR under hypercapnia and adenosine were not different (p>0.5 for all). […] Perfusion defect volumes and visual scoring under hypercapnia vs. adenosine were determined. TRP obtained under hypercapnia and adenosine were not different: 25±19% (hypercapnia) vs. 27±15% (adenosine); p=0.12. Direct comparison of TRP within the same subjects under hypercapnia and adenosine were highly correlated (R=0.85, p<0.05) and were in good agreement (bias=2%). Similar trends were observed from visual scoring analysis. No difference between the scores from hypercapnia and adenosine was observed from a paired sampled Wilcoxon signed rank test (p=0.26). Visual scores between hypercapnia and adenosine were concordant with most segments falling onto the diagonal of the scoring matrix (FIG. 18).

[4] = tested on: myocardial blood flow (MBF); assay: 13N-ammonia PET myocardial blood flow, canines without coronary stenosis; format: in vivo; conditions: for mean MBF: absence of stenosis, hypercapnia ~25 mmHg increase in PaCO2, standard dose adenosine; for Global MBF normalized by rate-pressure-product: intact canines, in ml/min/g per mmHg·bpm
Procedure: We investigated whether a physiologically tolerable hypercapnia stimulus ( 25-mmHg increase in PaCO2) can increase myocardial blood flow (MBF) to that observed with adenosine in three groups of canines: (i) without coronary stenosis; (ii) subjected to non-flow limiting coronary stenosis; and (iii) following pre-administration of caffeine. These studies were conducted by prospectively and independently controlling PaCO2 and combining it with ^[…]-ammonia Positron Emission Tomography (PET) measurements, and the extent of effect on MBF due to hypercapnia was compared to adenosine. The objectives of these studies were twofold: to investigate the effects of PaCO2 on MBF while minimizing contributions from factors that can unintentionally reduce or inaccurately report on sensitivity of PaCO2 on MBF; and to assess whether an independent, precise and rapid establishment of physiologically tolerable level of hypercapnia provides equivalent hyperemia as adenosine, a commonly used pharmacological stimulus for cardiac stress testing with and without pre-administration of caffeine. To address these aims, a clinically relevant animal model was used along with validated strategies for (i) precisely and rapidly establishing desired levels of PaCO2, while holding PaO2 constant; (ii) quantifying MBF in vivo; and (iii) image analysis to derive MBF values across the different coronary supply territories. We compared our findings to the effects of standard dose of adenosine in the same animal models with and without coronary stenosis to quantify MBF and flow deficit regions under peak tolerable PaCO2. To determine whether MBF response to PaCO2 overlaps the same mechanistic path as adenosine, we quantified MBF under hypercapnia and adenosine following caffeine administration. Studies were conducted as described in Yang, H-J et al., J. Nucl. Med. 58: 953-960 (2017), which is hereby incorporated by reference in its entirety. […] FIG. 13 is a table summarizing the mean arterial CO2, O2 and hemodynamic variables of interest in Group Intact. FIG. 14A-14D show the mean global MBF and MPR response to hypercapnia in relation to adenosine. Global MBF under adenosine and hypercapnia were both higher than at rest (p<0.05, for both) and were not different from one another (p=0.33). […] Similar observations were evident for regional MBF and MPR with hypercapnia and adenosine. The observed range of MBF at rest (0.44 to 1.93 ml/min/g) and adenosine (0.47 to 5.10 ml/min/g) and range of MPR under adenosine (1.20 to 4.57) across the animals is consistent with previous reports (Kuhle, W. G. et al., Circulation 86:1004-1017 (1992)).

myocardium [5] = assay: Myocardial BOLD MRI response to PaCO2 modulation while PaO2 is held constant; format: in vivo, canines
Procedure: In Examples 1-6, all imaging studies were performed in instrumented animals with a Doppler flow probe attached to the LAD coronary arteries for measurement of flow changes in response to CO2 and clinical dose of adenosine. In these studies, CO2 and O2 delivery were tightly controlled using […]. […] At each CO2 level, free-breathing and cardiac gated blood-oxygen-level-dependent (BOLD) acquisitions were prescribed at mid diastole and Doppler flow velocities were measured. Similar acquisitions were also performed with block sequences of CO2 levels; that is, CO2 levels were alternated between 40 and 50 mmHg and BOLD images (and corresponding Doppler flow velocities) were acquired at each CO2 level to assess the reproducibility of the signal changes associated with different CO2 levels. Each delivery of CO2 using […] was made in conjunction with arterial blood draw to determine the arterial blood CO2 levels. […] We assessed the difference between myocardial blood-oxygen-level dependent (BOLD) response under hypercarbia and normocarbia conditions in canines. The BOLD signal intensity is proportional to oxygen saturation. […] The lower panel depicts the difference as obtained by subtracting the signal under rest from that under stress. […] We further assessed the myocardial BOLD response to stepwise CO2 increase (ramp-up) in canines. […] To further evaluate vascular reactivity and coronary response to CO2, we measured the myocardial BOLD signal in response to block increases of CO2 in canines. Specifically, the myocardial BOLD signal was measured as the amount of CO2 administered to the canine subjects alternated between 40 mmHg CO2 and 50 mmHg CO2. […] The myocardium is supplied with blood by the left anterior descending (LAD) artery, the right coronary artery (RCA) and the left circumflex (LCX) artery. We measured the blood flow through each of these arteries in response to increasing CO2 supply. As shown in FIG. 6 and summarized in FIG. 7, in each of the three LAD, RCA and LCX arteries, there is a direct correlation between the amount of CO2 administered and the signal intensity; as the amount of administered CO2 increases, the signal intensity, signaling the blood flow, in each of the three arteries increases. Further, as shown in FIG. 6 and summarized in FIG. 8, there was no response to CO2 modulation in control territories such as blood, skeletal muscle or air. […] Vascular reactivity of three canines that were administered with adenosine was compared with the vascular reactivity of canines that were administered with CO2. As shown in FIGS. 10A and 10B, the hyperemic adenosine stress BOLD response was approximately 12% compared with 16% in response to CO2.

myocardium [6] = assay: Myocardial BOLD response to PaCO2 in human volunteers; format: in vivo, humans; conditions: early human data, pCO2 change of 10 mmHg, from 35 mmHg to 45 mmHg
LAD coronary arteries = assay: Epicardial flow enhancement, Carbogen against clinical dose of adenosine; format: in vivo, dogs; conditions: Carbogen with ETCO2 reaching 48-50 mm Hg
Procedure: as §1
In detail, the color images (lower panel of FIG. 1) are color-coded to the signal intensities of grayscale images (above). The darker colors (blue/black) represent territories of baseline myocardial oxygenation and the brighter regions represent those regions that are hyperemic. […]

SMILES: Cn1c(=O)c2c(ncn2C)n(C)c1=O [caffeine]
- resting MBF normalized by rate-pressure-product ([1]; post-administration of caffeine (1.5×10^−5 pre-administration, p=0.03)): 1.0×10^−5

SMILES: O=C=O [CO2, carbon dioxide]
- Doppler flow in LAD artery [2]: increases
- total reduction in perfusion volume (TRP, % LV) between stress and rest [3]: 25±19%
- regional MBF versus rest [3]: increased
- MBF increase in the LAD territory [3]: significantly lower than in the LCx and RCA territories
- mean MBF [4]: 2.1 ± 0.9 mL/min/g
- Global MBF normalized by rate-pressure-product [4]: 1.26×10^−5±0.56×10^−5
- BOLD signal intensity (myocardium [5]; block increase from 40 mmHg CO2 to 50 mmHg CO2, canines): increase in BOLD signal intensity
- BOLD signal intensity (myocardium [5]; hypercarbia (60 mm Hg) vs normocarbia (30 mmHg), canines): increase in BOLD signal intensity
- signal intensity, signaling the blood flow, in LAD, RCA and LCX arteries (myocardium [5]; increasing amount of administered CO2): increases
- BOLD signal intensity (myocardium [5]; stepwise CO2 increase (ramp-up), canines): increases
- hyperemic response (BOLD) (myocardium [6]): approximately 11%
- MBF response relative to rest [1]: able to induce myocardial hyperemia

SMILES: Nc1ncnc2c1ncn2[C@@H]1O[C@H](CO)[C@@H](O)[C@H]1O [adenosine, reference compound]
- total reduction in perfusion volume (TRP, % LV) between stress and rest [3]: 27±15%
- regional MBF versus rest [3]: increased
- MBF increase in the LAD territory [3]: significantly lower than in the LCx and RCA territories
- epicardial flow enhancement response (LAD coronary arteries): about 20%
- mean MBF [4]: 2.2 ± 1.1 mL/min/g
- Global MBF normalized by rate-pressure-product [4]: 1.16×10^−5±0.80×10^−5
- hyperemic BOLD response (myocardium [5]; canines, mean, adenosine stress in three canines): approximately 12%
- MBF response relative to rest [1]: no change in MBF
- global MPR ([1]; under caffeine, p<0.05): lower than under hypercapnia
